Assay results published in US4661516A, “Diaminocyclohexane platinum complexes” (Research Corporation, priority 1984, dated 1987).

Experiments:
[1] = tested on: Wild type L1210 leukemic cells; assay: In vitro cytotoxicity, wild type L1210 leukemic cells (L1210/0); format: cell-based; conditions: for ID50: L1210, 72 hours incubation; for ID50 L1210/0: L1210/0, protocol of Example 14, Tables VII and VIII
Description: Four ml of cell suspension (10^5 cells/ml) are added to culture tubes and the appropriate concentration (0.01, 0.1, 1 or 10 μg/ml final concentration) of drug added to the culture tubes. After 72 hours of incubation, the cell concentration of control and experimental cultures are determined with the aid of a Coulter Counter® Model ZBf and the percent inhibition calculated. […]

L1210/0 leukemia cells = assay: In vivo anti-tumor activity, L1210 (L1210/0), multiple i.p. doses; design: species or system BDF1 mice; conditions: for Maximal Effective Dose: i.p. on days 1, 5 and 9; for LTS: survivors/treated 50 days after treatment
Description: BDF1 mice were inoculated intraperitoneally with 10^6 L1210 cells. About 24 hours after inoculation of the cells, the mice were injected intraperitoneally with varying dosages of complexes of the present invention. Six mice were used for each dosage level in each experiment with an equal number of control mice inoculated with 10^6 L1210 cells and left untreated with a given complex. The results [%T/C=(survival time of treated animals/survival time of control animals)×100] are set forth below. Long term survival signifies that animals were alive 60 days after inoculation with L1210 cells.
The procedure of Example 16 was repeated except that the treated animals were injected with multiple doses of the complex as indicated below:
The anti-tumor activity of compound number 3 was evaluated against cells sensitive to (L1210/0) and resistant to (L1210/PDD) the standard platinum complex cis-diamminedichloroplatinum(II).
The following complexes were tested in vivo oncolytic activity following 3 i.p. injections (days 1, 5, 9) according to the protocol described in Examples 16 and 17.
BDF1 mice were innoculated intraperitoreally with 10^6 L1210 leukemia cells and treatment was begun on the next day (day 1). Two treatment schedules, i.e. single i.p. injection of the drug and i.p. injections on days 1, 5 and 9 according to the protocol described in Examples 16 and 17 were used.

L1210 cells = assay: In vivo anti-tumor activity, L1210, single i.p. injection; design: species or system BDF1 mice; conditions: single i.p.
Description: About 24 hours after inoculation of the cells, the mice were injected intraperitoneally with varying dosages of complexes of the present invention. […] Long term survival signifies that animals were alive 60 days after inoculation with L1210 cells.

[2] = tested on: L1210 leukemia cells (L1210/PDD); assay: In vitro cytotoxicity / cross-resistance, L1210/PDD (L1210/DDP) cells resistant to cisdiamminedichloroplatinum(II); format: cell-based; conditions: for ID50 L1210/DDP: Tables VII and VIII, 5760 min; for ID50 L1210/PDD: 96 hours
Description: Four ml of cell suspension were added to culture tubes and the appropriate concentration (0.01, 0.1, 1 or 10 μg/ml final drug concentration) was added. After 96 hours the cell concentration of control and experimental cultures were calculated with the aid of a Coulter Counter® Model ZBf and the percent inhibition calculated.

Male albino mice = assay: Acute toxicity, single intraperitoneal injection (Example 19); format: in vivo; conditions: single i.p.; for Calculated LD10 / Calculated LD50 / Calculated LD90: 14 days
Description: Fourteen days after treatment all surviving mice were sacrified and the LD10, LD50 and LD90 were calculated.

B16 cells = assay: Melanotic melanoma test, i.p. inoculated B16 melanoma; format: in vivo, BDF1 mice; conditions: for Maximal Effective Dose: B16, i.p. days 1, 5 and 9; for % T/C / Long Term Survivors: B16, i.p. days 1, 5 and 9, at maximal effective dose; for Long Term Survivors: 60 days
Description: The animals used were BDF1 mice, all of the same sex, weighing a minimum of 18 g. and all within a 4 g. weight range. There were 6 animals per test group. […] The test compounds were administered intraperitoneally on days 1, 5 and 9 at various doses. The animals were weighed and survivors were recorded on a regular basis for 60 days. The median survival time and the ratio of survival time for treated (T)/control (C) animals were calculated. […] The criterion for efficacy is T/C×100≥125%.

[3] = Tables X and XI, days 1, 5 and 9, at maximal effective dose, alive 60 days after tumor inoculation
[4] = Tables X and XI, i.p. on days 1, 5 and 9, at maximal effective dose

NC1CCCCC1N.O=C1OC(C(O)CO)C([O-])=C1O.O=C1OC(C(O)CO)C([O-])=C1O.[Pt+2] (mixture of isomers) [Compound 7, cis-bis-isoascorbato(DACH)Pt(II).3H2 O]
ID50 ([1]; 4320 min): 4.1 µg/mL
% T/C (L1210/0 leukemia cells; 12.5 mg/kg, days 1,5,9): 151%
% T/C (L1210/0 leukemia cells; 25 mg/kg, days 1,5,9): 179%
% T/C (L1210/0 leukemia cells; 50 mg/kg, days 1,5,9): 212%
% T/C (L1210 cells; 25 mg/kg): 132%
% T/C (L1210 cells; 50 mg/kg): 136%
% T/C (L1210 cells; 100 mg/kg): 196%
animals died of apparent drug toxicity (L1210 cells; 100 mg/kg): 2/6
Long Term Survivors (L1210 cells; 100 mg/kg, alive 60 days after inoculation): 1/6
ID50 L1210/DDP [2]: 3.8 µg/mL

N[C@@H]1CCCC[C@H]1N.O=C1O[C@H]([C@@H](O)CO)C([O-])=C1O.O=C1O[C@H]([C@@H](O)CO)C([O-])=C1O.[Pt+2] [Compound 4, cis-bis-ascorbato(trans-R,R--DACH)Pt(II).3H2 O]
ID50 [1]: 1.9 µg/mL
% T/C (L1210/0 leukemia cells; 25 mg/kg, days 1,5,9): 218%
% T/C (L1210/0 leukemia cells; 50 mg/kg, days 1,5,9): 144%
% T/C (L1210 cells; 25 mg/kg): 128%
% T/C (L1210 cells; 50 mg/kg): 184%
Long Term Survivors (LTS) (L1210 cells; 50 mg/kg, alive 60 days after inoculation): 1/6
ID50 L1210/PDD [2]: 0.4 µg/mL

N[C@H]1CCCC[C@@H]1N.O=C1O[C@H]([C@@H](O)CO)C([O-])=C1O.O=C1O[C@H]([C@@H](O)CO)C([O-])=C1O.[Pt+2] [Compound 5, cis-bis-ascorbato(trans-S,S--DACH)Pt(II).2H2 O]
ID50 [1]: 4.4 µg/mL
DEATHS/TREATED (Male albino mice; 60 mg/kg): 0/6
DEATHS/TREATED (Male albino mice; 80 mg/kg): 2/6
DEATHS/TREATED (Male albino mice; 100 mg/kg): 5/6
DEATHS/TREATED (Male albino mice; 125 mg/kg): 6/6
DEATHS/TREATED (Male albino mice; 160 mg/kg): 5/6
Calculated LD10 (Male albino mice): 70 mg/kg
Calculated LD50 (Male albino mice): 90 mg/kg
Calculated LD90 (Male albino mice): 125 mg/kg
% T/C (L1210 cells; 25 mg/kg): 136%
% T/C (L1210 cells; 50 mg/kg): Toxic
ID50 L1210/PDD [2]: 2.3 µg/mL

NC1CCCCC1N.O=C1O[C@H]([C@@H](O)C(=O)[O-])[C@H](O)[C@H]1O.O=C1O[C@H]([C@@H](O)C(=O)[O-])[C@H](O)[C@H]1O.[Pt+2] [Compound 9, cis-bis-D-saccharato-1,4-lactone(DACH)Pt(II)]
ID50 [1]: 3.0 µg/mL
DEATHS/TREATED (Male albino mice; 85 mg/kg): 0/6
DEATHS/TREATED (Male albino mice; 100 mg/kg): 0/6
DEATHS/TREATED (Male albino mice; 125 mg/kg): 3/6
DEATHS/TREATED (Male albino mice; 158 mg/kg): 5/6
DEATHS/TREATED (Male albino mice; 200 mg/kg): 4/6
Calculated LD10 (Male albino mice): 100 mg/kg
Calculated LD50 (Male albino mice): 140 mg/kg
Calculated LD90 (Male albino mice): 185 mg/kg
% T/C (L1210 cells; 12.5 mg/kg): 127%
% T/C (L1210 cells; 25 mg/kg): 138%
% T/C (L1210 cells; 50 mg/kg): 156%
% T/C (L1210 cells; 100 mg/kg): Toxic
ID50 L1210/PDD [2]: 0.6 µg/mL

NC1CCCCC1N.NCCOS(=O)(=O)[O-].NCCOS(=O)(=O)[O-].[Pt+2] (stereo not drawn) [Compound 14, cis-bis-2-aminoethylsulfato(DACH)Pt(II)]
ID50 [1]: 4.3 µg/mL
ID50 L1210/DDP [2]: 3.7 µg/mL

NC1CCCCC1N.O=C([O-])C1CCCN1.O=C([O-])C1CCCN1.[Pt+2] [Compound 16, cis-bis-L-prolinato(DACH)Pt(II)]
ID50 [1]: 4.0 µg/mL
% T/C (L1210 cells; 12.5 mg/kg): 144%
% T/C (L1210 cells; 25 mg/kg): 165%
% T/C (L1210 cells; 50 mg/kg): 165%
% T/C (L1210 cells; 100 mg/kg): 162%
animals died of apparent drug toxicity (L1210 cells; 100 mg/kg): 1 animals
ID50 L1210/DDP [2]: 2.5 µg/mL

NC(=O)CN(CC(=O)[O-])CC(=O)[O-].NC1CCCCC1N.[Pt+2] [Compound 42, N--(2-Acetamido)-iminodiacetato(DACH)Pt(II).1/2H2 O]
ID50 [1]: 0.7 µg/mL
ID50 L1210/0 ([1]; 4320 min): 3.0 µg/mL
ID50 L1210/DDP [2]: 1.8 µg/mL

CN(CC(=O)[O-])CC(=O)[O-].N[C@@H]1CCCC[C@H]1N.[Pt+2] [Identifier No. 11a, mono-N--methyliminodiacetato]
ID50 L1210/0 ([1]; 4320 min): 0.8 µg/mL
Long Term Survivors (L1210/0 leukemia cells; [3]): 6/6
Maximal Effective Dose (L1210/0 leukemia cells; Tables X and XI): 6.25 mg/kg
% T/C (L1210/0 leukemia cells; [4]): 700%
Maximal Effective Dose (B16 cells): 25 mg/kg
% T/C (B16 cells): 210%
Long Term Survivors (B16 cells): 2/6
ID50 L1210/DDP [2]: 1.9 µg/mL

N[C@@H]1CCCC[C@H]1N.O=C([O-])CN(CCO)CC(=O)[O-].[Pt+2] [Identifier No. 12a, mono-N--hydroxyethyliminodiacetato]
ID50 L1210/0 ([1]; 4320 min): 1.4 µg/mL
Long Term Survivors (L1210/0 leukemia cells; [3]): 2/6
Maximal Effective Dose (L1210/0 leukemia cells; Tables X and XI): 6.25 mg/kg
% T/C (L1210/0 leukemia cells; [4]): 384%
Maximal Effective Dose (B16 cells): 25 mg/kg
% T/C (B16 cells): 265%
Long Term Survivors (B16 cells): 4/6
ID50 L1210/DDP [2]: 1.8 µg/mL

Cis-bis-cyclopentenecarboxylato(DACH)Pt(II).2H2 O [Compound 26]
ID50 [1]: 1.3 µg/mL
% T/C (L1210/0 leukemia cells; 6.25 mg/kg i.p., days 1, 5, 9, 30 day observation period): 189%
% T/C (L1210/0 leukemia cells; 12.5 mg/kg i.p., days 1, 5, 9, 30 day observation period): 356%
LTS (L1210/0 leukemia cells; 12.5 mg/kg, days 1, 5, 9): 1/6
% T/C (L1210/0 leukemia cells; 25 mg/kg i.p., days 1, 5, 9, 30 day observation period): 300%
LTS (L1210/0 leukemia cells; 25 mg/kg, days 1, 5, 9): 1/6
% T/C (L1210 cells; 12.5 mg/kg): 185%
% T/C (L1210 cells; 25 mg/kg): 158%
% T/C (L1210 cells; 50 mg/kg): 157%

cis-bis-D-monosaccharato(DACH)Pt(II).3H2 O [Compound 8]
ID50 [1]: 2.8 µg/mL
% T/C (L1210/0 leukemia cells; 25 mg/kg, days 1,5,9): 206%
% T/C (L1210/0 leukemia cells; 50 mg/kg, days 1,5,9): 225%
Long Term Survivors (L1210/0 leukemia cells; 50 mg/kg, days 1,5,9): 1/6
DEATHS/TREATED (Male albino mice; 100 mg/kg): 1/6
DEATHS/TREATED (Male albino mice; 125 mg/kg): 1/6
DEATHS/TREATED (Male albino mice; 158 mg/kg): 4/6
DEATHS/TREATED (Male albino mice; 200 mg/kg): 3/6
DEATHS/TREATED (Male albino mice; 250 mg/kg): 6/6
Calculated LD10 (Male albino mice): 115 mg/kg
Calculated LD50 (Male albino mice): 155 mg/kg
Calculated LD90 (Male albino mice): 220 mg/kg
% T/C (L1210 cells; 12.5 mg/kg): 120%
% T/C (L1210 cells; 25 mg/kg): 129%
% T/C (L1210 cells; 50 mg/kg): 156%
% T/C (L1210 cells; 100 mg/kg): 151%
% T/C (L1210 cells; 200 mg/kg): Toxic
ID50 L1210/PDD [2]: 0.9 µg/mL

furanedicarboxylato(DACH)Pt(II) [Compound 19]
ID50 [1]: 1.0 µg/mL
% T/C (L1210 cells; 6.25 mg/kg): 143%
% T/C (L1210 cells; 12.5 mg/kg): 136%
% T/C (L1210 cells; 25 mg/kg): 136%
% T/C (L1210 cells; 50 mg/kg): Toxic
ID50 L1210/DDP [2]: 0.9 µg/mL

isocitratomonoethylester(DACH)Pt(II).1.5H2 O [Compound 21]
ID50 [1]: 2.0 µg/mL
ID50 L1210/DDP [2]: 1.9 µg/mL

mono-N--benzyliminodiacetato [Identifier No. 15a]
ID50 L1210/0 ([1]; 4320 min): 1.0 µg/mL
Long Term Survivors (L1210/0 leukemia cells; [3]): 4/6
Maximal Effective Dose (L1210/0 leukemia cells; Tables X and XI): 6.25 mg/kg
% T/C (L1210/0 leukemia cells; [4]): 620%
Maximal Effective Dose (B16 cells): 12.5 mg/kg
% T/C (B16 cells): 252%
Long Term Survivors (B16 cells): 3/6
ID50 L1210/DDP [2]: 2.4 µg/mL
